Laboratory results published in patent US4935415A, “UCN-01 and process for production thereof” (priority 1986, dated 1990).
In brackets after ≈: the same amount, converted by molar mass.

How the values were obtained:
[1] = tested on: lymphocytic leukemia P388 tumor; experiment: Therapeutic effect on lymphocytic leukemia P388 tumor; type: in vivo, male CDF1 mice
Experimental: Therapeutic effect on lymphocytic leukemia P388 tumor:
Five male CDF1 mice each having a weight of about 22 g were used for each group as test animals, and 1×10^6 cells of lymphocytic leukemia P388 tumor were implanted intraperitoneally in the test animals. 24 hours after implantation, 0.2 ml of a phosphate buffer saline (hereafter referred to as PBS) containing UCN-01 was intraperitoneally administered.
The composition of PBS was 0.8% NaCl, 0.02% KCl, 1.15% Na2 HPO4, […] 0.02% KH2 PO4 (pH 7.0).
For comparison, 0.2 ml of PBS solution containing Staurosporine was intraperitoneally administered 24 hours after the implantation of the tumor cells. Increased life span (T/C) (T: mean survival days of the treated group, C: mean survival days of the control group) is shown in Table 5.

[2] = LD50 of Staurosporine (note to Table 5); settings: in vivo; species and route not printed in the note
[3] = tested on: Shigella sonnei ATCC 9290; experiment: Anti-bacterial activity, agar dilution method (MIC); type: cell-based; settings: ATCC9290, pH 7
Experimental: (§1) The minimum inhibitory concentration (MIC) against various microorganisms is shown below.
(§2) The anti-bacterial activity was measured by the agar dilution method, using a medium (pH 7) prepared by dissolving 3 g of Bacto-Tryptone (manufacturedby Difco Co., Ltd.), 3 g of meat extract, 1 g of yeast extract, 1 g of glucose and 16 g of agar in 1 (of water.

[4] = tested on: Bacillus subtilis No. 10707; experiment: as above; type: cell-based; settings: pH 7
Experimental: as §1, §2

[5] = tested on: Staphylococcus aureus ATCC 6538P; experiment: as above; type: cell-based; settings: ATCC6538P, pH 7
Experimental: as §1, §2

Escherichia coli ATCC 26 = experiment: as above; type: cell-based; settings: ATCC26, pH 7
Experimental: as §1, §2

[6] = tested on: Klebsiella pneumoniae ATCC 10031; experiment: as above; type: cell-based; settings: ATCC10031, pH 7
Experimental: as §1, §2

[7] = tested on: Salmonella typhi ATCC 9992; experiment: as above; type: cell-based; settings: Salmonella enterica, pH 7
Experimental: as §1, §2

[8] = Acute toxicity (LD50), intraperitoneal administration to mice; settings: mouse, in vivo, ip
Experimental: The acute toxicity value (LD50) was 30 mg/kg by intraperitoneal administration to mice.

| Compound | Increased Life Span (T/C) ([1]; 1 mg/kg, intraperitoneal, 24 hours after implantation) | Increased Life Span (T/C) ([1]; 2 mg/kg, intraperitoneal, 24 hours after implantation) | Increased Life Span (T/C) ([1]; 4 mg/kg, intraperitoneal, 24 hours after implantation) | LD50 [2] | Increased Life Span (T/C) ([1]; 7.5 mg/kg, intraperitoneal, 24 hours after implantation) | Increased Life Span (T/C) ([1]; 15 mg/kg, intraperitoneal, 24 hours after implantation) | Increased Life Span (T/C): toxic ([1]; 30 mg/kg, intraperitoneal, 24 hours after implantation) | anti-tumor activity as compared with staurosporine ([1]; comparison with staurosporine, in words) | MIC [3] | MIC [4] | MIC [5] | MIC (Escherichia coli ATCC 26) | MIC [6] | MIC [7] | LD50 [8] |
| --- | --- | --- | --- | --- | --- | --- | --- | --- | --- | --- | --- | --- | --- | --- | --- |
| CN[C@@H]1C[C@H]2O[C@@](C)([C@@H]1OC)n1c3ccccc3c3c4c(c5c6ccccc6n2c5c31)C(=O)NC4 [Staurosporine, reference compound] | 1.10 | 1.12 | 1.08 | 6.6 mg/kg |  |  |  |  |  |  |  |  |  |  |  |
| CNC1CC2OC(C)(C1OC)n1c3ccccc3c3c4c(c5c6ccccc6n2c5c31)C(=O)NC4O (stereo not drawn) [UCN-01] |  |  |  |  | 1.12 | 1.24 | toxic | superior anti-tumor activity | 100 µg/mL (≈ 207 µM) | > 100 µg/mL | 83 µg/mL (≈ 172 µM) | 83 µg/mL (≈ 172 µM) | 83 µg/mL (≈ 172 µM) | 83 µg/mL (≈ 172 µM) | 30 mg/kg |
